Laboratory results published in patent US20240376099A1, “COMPOUNDS AND COMPOSITIONS AS INHIBITORS OF ENDOSOMAL TOLL-LIKE RECEPTORS” (Novartis AG, priority 2016, published 2024).

Target: T1, TLR9 (Homo sapiens, UniProt Q9NR96)
T1 construct: Fresh blood was collected from normal human donors; endogenous in cells; host or cells: human PBMCs from fresh donor blood
T1 sequence (Q9NR96 26-1032): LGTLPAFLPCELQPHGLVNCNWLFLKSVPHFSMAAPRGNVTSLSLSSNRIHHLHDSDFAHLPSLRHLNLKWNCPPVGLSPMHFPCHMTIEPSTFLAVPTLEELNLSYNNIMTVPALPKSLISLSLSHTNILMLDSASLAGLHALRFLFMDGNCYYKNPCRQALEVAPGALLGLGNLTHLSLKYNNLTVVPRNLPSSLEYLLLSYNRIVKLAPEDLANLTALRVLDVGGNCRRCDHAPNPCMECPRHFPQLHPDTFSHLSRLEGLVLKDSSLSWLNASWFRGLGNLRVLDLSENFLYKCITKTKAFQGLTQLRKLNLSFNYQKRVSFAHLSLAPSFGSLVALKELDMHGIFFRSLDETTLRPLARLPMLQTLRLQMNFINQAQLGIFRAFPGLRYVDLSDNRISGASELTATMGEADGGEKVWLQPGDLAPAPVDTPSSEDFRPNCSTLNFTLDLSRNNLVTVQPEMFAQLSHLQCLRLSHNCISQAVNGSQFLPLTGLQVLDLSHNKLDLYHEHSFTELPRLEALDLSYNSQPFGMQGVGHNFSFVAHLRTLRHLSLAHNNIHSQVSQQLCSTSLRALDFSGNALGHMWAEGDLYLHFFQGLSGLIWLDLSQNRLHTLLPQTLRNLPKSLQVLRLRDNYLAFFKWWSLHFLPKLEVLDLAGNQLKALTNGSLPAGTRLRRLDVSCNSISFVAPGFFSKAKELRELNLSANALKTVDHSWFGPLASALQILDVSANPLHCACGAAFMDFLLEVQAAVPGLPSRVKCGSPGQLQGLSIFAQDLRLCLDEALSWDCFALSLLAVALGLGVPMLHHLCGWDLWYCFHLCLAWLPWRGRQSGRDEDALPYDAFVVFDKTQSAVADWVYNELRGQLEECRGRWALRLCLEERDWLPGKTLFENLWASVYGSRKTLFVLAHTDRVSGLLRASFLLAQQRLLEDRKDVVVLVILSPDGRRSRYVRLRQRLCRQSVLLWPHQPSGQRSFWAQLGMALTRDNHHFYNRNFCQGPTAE
Experiment: huPBMC TLR9 Antagonist IFNα Assay
Format: cell-based
Settings: human PBMCs stimulated with ODN2216 0.3 μM, 14-16 hrs; IFNα2b AlphaLISA read-out
Protocol: Compounds were generally serially diluted (1/3) in DMSO and plated on sterile 384 well tissue culture plates and stored until ready for use. Each ten-point dilution was typically plated in triplicate in parallel rows.
Fresh blood was collected from normal human donors underwritten informed consent in heparinized syringes on the morning of the assay. The blood was diluted in RPMI-1640 medium and the white blood cells were separated from red blood cells by centrifugation (800 g 15′ 0 acceleration, 0 brake) on a Ficoll cushion. Peripheral blood mononuclear cells (PBMCs) were separated from platelets by a series of low-speed centrifugations (1000RPM 10′) in PBS+5% HI—FBS and 1 mM EDTA. Purified PBMCs were re-suspended in assay medium (RPMI-1640 w Glutamax (Invitrogen) supplemented with 5% HI—FBS, 10 mM HEPES, 50 uM β-mercaptoethanol, and 100 mG/L penicillin/streptomycin cocktail). Viable PBMCs were counted on a hemacytometer and kept on ice until ready for plating.
A 4× concentration (4 ug/ml or 40 ug/ml for TLR8 or TLR7 assays, respectively) of the TLR7/8 agonist ssRNA40 (IDT) was complexed with 10% DOTAP (Roche) in assay medium for 30 min prior to addition to the PBMC suspension (5 million cells/ml). After addition, the final concentration of ssRNA40 in the TLR7/8 stimulated PBMC suspension was 1 μg/ml for TLR8 assay, and 10 μg/mL for the TLR7 assay. The final DOTAP concentration was 2.5%. Diluted PBMCs (5 million cells/ml) were treated with 4×TLR9 agonist ODN2216 (Invivogen). Final concentration of ODN2216 in TLR9 stimulated PBMC suspension was 0.3 μM.
Agonist stimulated PBMCs were plated on the compound treated 384 well plates at 150,000 cells/well. Un-stimulated PBMCs were plated as controls on each plate. Plating volume was 40 μL per well. DMSO concentration in each well was 0.25%.
A separate plate, without compounds, with titrations of ssRNA40 and ODN2216 was included in every assay to measure agonist response of each donor's PBMC prep. Assay plates were placed in a tissue culture incubator (37° C., 5% CO2) for 14-16 hrs. After this incubation, the plates were centrifuged and stored at −20° C. until they were assayed.
IL-6 TR-FRET Assay for TLR8 activity: • 1) Cisbio Human IL-6 kit, 20,000 tests (62TNFPEC), and GNF High-Base TC 384 well plates (cat #789163G) were used; • 2) the Anti-TIL-6 Cryptate conjugate and the Anti-IL-6 XL665 conjugate were diluted 1:20 in Reconstitution Buffer; • 3) a 1:1 mixture of 3 μl/well Anti-IL-6 Cryptate conjugate and 3 μl/well Anti-IL-6 XL665 conjugate was prepared; • 4) 6 μl/well HTRF dilution mastermix was added to 6 μl of transferred supernatant samples in proxiplates; • 5) The plates were incubated for 3 hrs at rt in the dark; and • 6) the levels of IL-6 production was measured using an Envision plate reader (665 nm (emmission)/590 nm (excitation)) with HTRF settings and ratiometric read-out: (XL665 emission/Eu Cryptate emission)×10,000. IFNα2b AlphaLISA Assay for TLR7 or TLR9 activity After thawing the assay plates, 6 μL of supernatant samples were transferred to a low-volume AlphaPlate 384SW (Perkin-Elmer). The concentration of IFNα in supernatants was measured using the IFNα2b AlphaLISA Assay (Perkin-Elmer: AL297F). 3 μL of IFNα acceptor beads/biotinylated antibody solution was added first, using laboratory automation. After an hour incubation, […] of streptavidin […] bead solution was added. The plates containing this mixture were incubated in the dark for an hour and read on an appropriate plate reader at reading parameters set by the manufacturer. (Envision, EnSpire: Perkin-Elmer).

IC50 [nM]	SMILES
1930	Cc1cc(N2CCc3c(c(C)nn3CC34CCC(N)(CC3)CC4)C2)c2ccncc2n1 [Compound No. 3, 4-((3-methyl-5-(2-methyl-1,7-naphthyridin-4-yl)-4,5,6,7-tetrahydro-1H-pyrazolo[4,3-c]pyridin-1-yl)methyl)bicyclo[2.2.2]octan-1-amine]
1390	Cc1cc(N2CCc3c(c(C)nn3CC34CCC(NC5COC5)(CC3)CC4)C2)c2cnn(C)c2n1 [Compound No. 6, N-(4-((5-(1,6-dimethyl-1H-pyrazolo[3,4-b]pyridin-4-yl)-3-methyl-4,5,6,7-tetrahydro-1H-pyrazolo[4,3-c]pyridin-1-yl)methyl)bicyclo[2.2.2]octan-1-yl)oxetan-3-amine]
5100	Cc1cc(N2CCc3c(c(C)nn3CC34CCC(NC(=O)[C@H]5COCCN5)(CC3)CC4)C2)c2cnn(C)c2n1 [Compound No. 9, (R)—N-(4-((5-(1,6-dimethyl-1H-pyrazolo[3,4-b]pyridin-4-yl)-3-methyl-4,5,6,7-tetrahydro-1H-pyrazolo[4,3-c]pyridin-1-yl)methyl)bicyclo[2.2.2]octan-1-yl)morpholine-3-carboxamide]
> 10000	Cc1nc(N2CCc3c(c(C)nn3CC34CCC(N5CC6(COC6)C5)(CC3)CC4)C2)c2c(n1)c(C)nn2C [Compound No. 10, 6-(4-((3-methyl-5-(1,3,5-trimethyl-1H-pyrazolo[4,3-d]pyrimidin-7-yl)-4,5,6,7-tetrahydro-1H-pyrazolo[4,3-c]pyridin-1-yl)methyl)bicyclo[2.2.2]octan-1-yl)-2-oxa-6-azaspiro[3.3]heptane]
> 1000	Cc1nc(N2CCc3c(c(C)nn3CC34CCC(N)(CC3)CC4)C2)c2c(n1)c(C)nn2C [Compound No. 26, 4-((3-methyl-5-(1,3,5-trimethyl-1H-pyrazolo[4,3-d]pyrimidin-7-yl)-4,5,6,7-tetrahydro-1H-pyrazolo[4,3-c]pyridin-1-yl)methyl)bicyclo[2.2.2]octan-1-amine]
511	Cc1cc(N2CCc3c(c(C)nn3CC34CCC(N(C)C)(CC3)CC4)C2)c2cnn(C)c2n1 [Compound No. 43, 4-((5-(1,6-dimethyl-1H-pyrazolo[3,4-b]pyridin-4-yl)-3-methyl-4,5,6,7-tetrahydro-1H-pyrazolo[4,3-c]pyridin-1-yl)methyl)-N,N-dimethylbicyclo[2.2.2]octan-1-amine]
> 10000	Cc1cc(N2CCc3c(c(C)nn3CC34CCC(N5CCN(C)C(=O)C5)(CC3)CC4)C2)c2cnn(C)c2n1 [Compound No. 104, 4-(4-((5-(1,6-dimethyl-1H-pyrazolo[3,4-b]pyridin-4-yl)-3-methyl-4,5,6,7-tetrahydro-1H-pyrazolo[4,3-c]pyridin-1-yl)methyl)bicyclo[2.2.2]octan-1-yl)-1-methylpiperazin-2-one]
8640	Cc1cc(N2CCc3c(c(C)nn3CC34CCC(N5CCN(C)CC5=O)(CC3)CC4)C2)c2cnn(C)c2n1 [Compound No. 108, 1-(4-((5-(1,6-dimethyl-1H-pyrazolo[3,4-b]pyridin-4-yl)-3-methyl-4,5,6,7-tetrahydro-1H-pyrazolo[4,3-c]pyridin-1-yl)methyl)bicyclo[2.2.2]octan-1-yl)-4-methylpiperazin-2-one]
608	Cc1cc(N2CCc3c(c(C)nn3CC34CCC(n5ccnc5)(CC3)CC4)C2)c2cnn(C)c2n1 [Compound No. 119, 1-((4-(1H-imidazol-1-yl)bicyclo[2.2.2]octan-1-yl)methyl)-5-(1,6-dimethyl-1H-pyrazolo[3,4-b]pyridin-4-yl)-3-methyl-4,5,6,7-tetrahydro-1H-pyrazolo[4,3-c]pyridine]
1140	Cc1cc(N2CCc3c(c(C)nn3CC34CCC(NC(=O)CN5CC(F)C5)(CC3)CC4)C2)c2cnn(C)c2n1 [Compound No. 133, N-(4-((5-(1,6-dimethyl-1H-pyrazolo[3,4-b]pyridin-4-yl)-3-methyl-4,5,6,7-tetrahydro-1H-pyrazolo[4,3-c]pyridin-1-yl)methyl)bicyclo[2.2.2]octan-1-yl)-2-(3-fluoroazetidin-1-yl)acetamide]
> 10000	Cc1cc(N2CCc3c(c(C)nn3CC34CCC(NC(=O)CO)(CC3)CC4)C2)c2cnn(C)c2n1 [Compound No. 135, N-(4-((5-(1,6-dimethyl-1H-pyrazolo[3,4-b]pyridin-4-yl)-3-methyl-4,5,6,7-tetrahydro-1H-pyrazolo[4,3-c]pyridin-1-yl)methyl)bicyclo[2.2.2]octan-1-yl)-2-hydroxyacetamide]
1170	Cc1cc(N2CCc3c(c(C)nn3CC34CCC(NC(=O)CN5CC(O)C5)(CC3)CC4)C2)c2cnn(C)c2n1 [Compound No. 136, N-(4-((5-(1,6-dimethyl-1H-pyrazolo[3,4-b]pyridin-4-yl)-3-methyl-4,5,6,7-tetrahydro-1H-pyrazolo[4,3-c]pyridin-1-yl)methyl)bicyclo[2.2.2]octan-1-yl)-2-(3-hydroxyazetidin-1-yl)acetamide]
1800	[2H]C([2H])([2H])n1ncc2c(N3CCc4c(c(C)nn4CC45CCC(N)(CC4)CC5)C3)cc(C)nc21 [Compound No. 140, 4-((3-methyl-5-(6-methyl-1-(methyl-d3)-1H-pyrazolo[3,4-b]pyridin-4-yl)-4,5,6,7-tetrahydro-1H-pyrazolo[4,3-c]pyridin-1-yl)methyl)bicyclo[2.2.2]octan-1-amine]
6240	Cc1cc(N2CCc3c(c(C)nn3CC34CCC(NC(=O)OC(C)(C)C)(CC3)CC4)C2)c2ccncc2n1 [Compound No. 147, tert-butyl (4-((3-methyl-5-(2-methyl-1,7-naphthyridin-4-yl)-4,5,6,7-tetrahydro-1H-pyrazolo[4,3-c]pyridin-1-yl)methyl)bicyclo[2.2.2]octan-1-yl)carbamate]

SMILES	IC50 [nM]
Cc1cc(N2CCc3c(c(C)nn3CC34CCC(NC(=O)[C@@H]5COCCN5)(CC3)CC4)C2)c2cnn(C)c2n1 [Compound No. 8, (S)—N-(4-((5-(1,6-dimethyl-1H-pyrazolo[3,4-b]pyridin-4-yl)-3-methyl-4,5,6,7-tetrahydro-1H-pyrazolo[4,3-c]pyridin-1-yl)methyl)bicyclo[2.2.2]octan-1-yl)morpholine-3-carboxamide]	4280
